Measurements as given in patent publication EP3800188A1, “SUBSTITUTED PYRAZOLOPYRIMIDINES AS IRAK4 INHIBITORS” (Bayer AG, priority 2019, dated 2021).

Tests used:
[1] = Metabolic stability in human liver microsomes; settings: 1 µM compound; for CLblood, human microsomes: hepatic in vivo blood clearance calculated with well stirred liver model, '(stable)' given beside < 0.01; for Fmax, human microsomes: maximal oral bioavailability calculated with well stirred liver model, 0.5 mg/mL protein, '(stable)' given beside 100
[2] = target: T1, human IRAK4 (Homo sapiens, UniProt Q9NWZ3); assay: Human IRAK4 kinase activity inhibition assay (IRAK4 TR-FRET assay); format: biochemical; settings: 1 mM ATP, GST-human IRAK4, average or median values
T1 construct: GST (N); made in house; host or cells: baculovirus-infected Hi5 (BTI-TN-5B1-4) insect cells
T1 sequence (Q9NWZ3 1-460): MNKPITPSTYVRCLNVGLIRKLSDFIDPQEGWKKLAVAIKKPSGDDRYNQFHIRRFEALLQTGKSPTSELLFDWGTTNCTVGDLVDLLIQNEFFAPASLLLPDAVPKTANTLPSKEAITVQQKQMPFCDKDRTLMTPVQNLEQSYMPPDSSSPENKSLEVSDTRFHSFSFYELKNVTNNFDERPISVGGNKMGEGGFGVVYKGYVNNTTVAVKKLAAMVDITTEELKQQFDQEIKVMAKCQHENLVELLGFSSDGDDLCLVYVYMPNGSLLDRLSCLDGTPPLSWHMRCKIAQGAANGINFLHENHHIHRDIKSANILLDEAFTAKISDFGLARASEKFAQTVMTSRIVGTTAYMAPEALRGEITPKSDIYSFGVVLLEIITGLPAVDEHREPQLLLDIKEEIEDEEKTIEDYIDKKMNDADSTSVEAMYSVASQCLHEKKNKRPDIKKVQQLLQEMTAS
Procedure, shortened: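 Signal was the 665/620 nm emission ratio from a europium anti-mouse-IgG, anti-phosphoserine antibody and streptavidin-XL665 complex formed over 1 h at 22°C. It was scaled between no-enzyme (100%) and no-compound (0%) wells. Beforehand, compounds (20 µM down to 0.073 nM, 11 points) sat 15 min with roughly 0.2 nM insect-cell-expressed GST-human IRAK4 before phosphorylation of a biotinylated peptide substrate.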

SMILES: O=S1(=O)C[C@H](Nc2nc(N3CC(N4CCOCC4)C3)c3cnn(-c4cccc(C(F)(F)F)c4)c3n2)[C@@H](O)C1 (relative stereo) [Example I-37, rel-(3R,4R)-4-({4-[3-(morpholin-4-yl)azetidin-1-yl]-1-[3-(trifluoromethyl)phenyl]-1H-pyrazolo[3,4-d]pyrimidin-6-yl}amino)tetrahydrothiophene-3-ol 1,1-dioxide]
- CLblood, human microsomes [1]: 0.05 L/h/kg
- Fmax, human microsomes [1]: 97%
- IC50 [2]: 11.5 nM

SMILES: C[C@H]1CN(c2nc(N[C@H]3C[C@H](S(C)(=O)=O)C3)nc3c2cnn3-c2cccc(C(F)F)c2)C[C@@H]1O (relative stereo) [II-17-1, rel-(3R,4S)-1-(1-[3-(difluoromethyl)phenyl]-6-{[trans-3-(methylsulfonyl)cyclobutyl]-amino}-1H-pyrazolo[3,4-d]pyrimidin-4-yl)-4-methylpyrrolidin-3-ol]
- CLblood, human microsomes [1]: 0.10 L/h/kg
- Fmax, human microsomes [1]: 93%
- IC50 [2]: 2.64 nM

SMILES: C[C@H]1CN(c2nc(N[C@H]3C[C@H](S(C)(=O)=O)C3)nc3c2cnn3-c2cccc(C(F)F)c2)C[C@@H]1O (single isomer, unassigned) [II-17-2, (3R*,4S*)-1-(1-[3-(difluoromethyl)phenyl]-6-{[trans-3-(methylsulfonyl)cyclobutyl]amino}-1H-pyrazolo[3,4-d]pyrimidin-4-yl)-4-methylpyrrolidin-3-ol]
- CLblood, human microsomes [1]: 0.28 L/h/kg
- Fmax, human microsomes [1]: 79%
- IC50 [2]: 2.1 nM

SMILES: CCC1(O)CN(c2nc(N[C@@H]3CNC(=O)C3)nc3c2cnn3-c2cccc(C(F)(F)F)c2)C1 [Example I-3-1, (4S)-4-({4-(3-ethyl-3-hydroxyazetidin-1-yl)-1-[3-(trifluoromethyl)phenyl]-1H-pyrazolo[3,4-d]pyrimidin-6-yl}amino)pyrrolidin-2-one]
- CLblood, human microsomes [1]: 0.46 L/h/kg
- Fmax, human microsomes [1]: 65%
- IC50 [2]: 9.76 nM

SMILES: CC(C)(O)C1CCN(c2nc(N[C@@H]3CCOC3)nc3c2cnn3-c2cccc(C(F)(F)F)c2)CC1 [Example I-16-2, 2-(1-{6-[(3R)-tetrahydrofuran-3-ylamino]-1-[3-(trifluoromethyl)phenyl]-1H-pyrazolo[3,4-d]pyrimidin-4-yl}piperidin-4-yl)propan-2-ol]
- CLblood, human microsomes [1]: 0.92 L/h/kg
- Fmax, human microsomes [1]: 30%
- IC50 [2]: 16.1 nM

SMILES: O=S1(=O)CC[C@@H](Nc2nc(N3CC(N4CCOCC4)C3)c3cnn(-c4cccc(C(F)(F)F)c4)c3n2)C1 [Example I-22, N-[(3R)-1,1-dioxidotetrahydrothiophen-3-yl]-4-[3-(morpholin-4-yl)azetidin-1-yl]-1-[3-(trifluoromethyl)phenyl]-1H-pyrazolo[3,4-d]pyrimidin-6-amine]
- CLblood, human microsomes [1]: 0.34 L/h/kg
- Fmax, human microsomes [1]: 74%
- IC50 [2]: 99.3 nM

SMILES: O=C1C[C@H](Nc2nc(N3CCC(N4CCOCC4)CC3)c3cnn(-c4cccc(C(F)(F)F)c4)c3n2)CN1 [Example I-27, (4S)-4-({4-[4-(morpholin-4-yl)piperidin-1-yl]-1-[3-(trifluoromethyl)phenyl]-1H-pyrazolo[3,4-d]pyrimidin-6-yl}amino)pyrrolidin-2-one]
- CLblood, human microsomes [1]: 0.17 L/h/kg
- Fmax, human microsomes [1]: 87%
- IC50 [2]: 7.01 nM

SMILES: CC(C)(O)C1CCN(c2nc(N[C@H]3CC[C@@H](O)C3)nc3c2cnn3-c2cccc(C(F)(F)F)c2)CC1 [Example I-29, (1R,3S)-3-({4-[4-(2-hydroxypropan-2-yl)piperidin-1-yl]-1-[3-(trifluoromethyl)phenyl]-1H-pyrazolo[3,4-d]pyrimidin-6-yl}amino)cyclopentanol]
- CLblood, human microsomes [1]: 0.43 L/h/kg
- Fmax, human microsomes [1]: 68%
- IC50 [2]: 10.8 nM

SMILES: CC1(O)CCN(C2CN(c3nc(N[C@@H]4CNC(=O)C4)nc4c3cnn4-c3cccc(C(F)(F)F)c3)C2)CC1 [Example I-30, (4S)-4-({4-[3-(4-hydroxy-4-methylpiperidin-1-yl)azetidin-1-yl]-1-[3-(trifluoromethyl)phenyl]-1H-pyrazolo[3,4-d]pyrimidin-6-yl)amino)pyrrolidin-2-one]
- CLblood, human microsomes [1]: < 0.01 (stable) L/h/kg
- Fmax, human microsomes [1]: 100 (stable) %
- IC50 [2]: 6.15 nM

SMILES: CN1CC[C@H](Nc2nc(N3C[C@@H](O)[C@H](O)C3)c3cnn(-c4cccc(C(F)(F)F)c4)c3n2)C1 [Example I-31, (3R,4R)-1-(6-{[(3S)-1-methylpyrrolidin-3-yl]amino}-1-[3-(trifluoromethyl)phenyl]-1H-pyrazolo[3,4-d]pyrimidin-4-yl)pyrrolidine-3,4-diol]
- CLblood, human microsomes [1]: < 0.01 (stable) L/h/kg
- Fmax, human microsomes [1]: 100 (stable) %
- IC50 [2]: 12.6 nM

SMILES: CC(C)(N)C1CN(c2nc(NC3CCS(=O)(=O)CC3)nc3c2cnn3-c2cccc(C(F)(F)F)c2)C1 [Example I-45, 4-[3-(2-aminopropan-2-yl)azetidin-1-yl]-N-(1,1-dioxidotetrahydro-2H-thiopyran-4-yl)-1-[3-(trifluoromethyl)phenyl]-1H-pyrazolo[3,4-d]pyrimidin-6-amine]
- CLblood, human microsomes [1]: 0.05 L/h/kg
- Fmax, human microsomes [1]: 96%
- IC50 [2]: 5.1 nM

SMILES: CC(C)(N)C1CCN(c2nc(NC3CCS(=O)(=O)CC3)nc3c2cnn3-c2cccc(C(F)(F)F)c2)CC1 [Example I-46, 4-[4-(2-aminopropan-2-yl)piperidin-1-yl]-N-(1,1-dioxidotetrahydro-2H-thiopyran-4-yl)-1-[3-(trifluoromethyl)phenyl]-1H-pyrazolo[3,4-d]pyrimidin-6-amine]
- CLblood, human microsomes [1]: 0.25 L/h/kg
- Fmax, human microsomes [1]: 81%
- IC50 [2]: 1.4 nM

SMILES: CC(C)(N)C1CCN(c2nc(N[C@@H]3CNC(=O)C3)nc3c2cnn3-c2cccc(C(F)(F)F)c2)CC1 [Example I-47, (4S)-4-({4-[4-(2-aminopropan-2-yl)piperidin-1-yl]-1-[3-(trifluoromethyl)phenyl]-1H-pyrazolo[3,4-d]pyrimidin-6-yl}amino)pyrrolidin-2-one]
- CLblood, human microsomes [1]: 0.17 L/h/kg
- Fmax, human microsomes [1]: 87%
- IC50 [2]: 0.861 nM

SMILES: NC1(C2CCN(c3nc(N[C@@H]4CNC(=O)C4)nc4c3cnn4-c3cccc(C(F)(F)F)c3)CC2)CC1 [Example I-48, (4S)-4-({4-[4-(1-aminocyclopropyl)piperidin-1-yl]-1-[3-(trifluoromethyl)phenyl]-1H-pyrazolo[3,4-d]pyrimidin-6-yl}amino)pyrrolidin-2-one]
- CLblood, human microsomes [1]: < 0.01 (stable) L/h/kg
- Fmax, human microsomes [1]: 100 (stable) %
- IC50 [2]: 1.12 nM

SMILES: CC(C)(O)CC1CN(c2nc(N[C@@H]3CNC(=O)C3)nc3c2cnn3-c2cccc(C(F)(F)F)c2)C1 [Example I-49, (4S)-4-({4-[3-(2-hydroxy-2-methylpropyl)azetidin-1-yl]-1-[3-(trifluoromethyl)phenyl]-1H-pyrazolo[3,4-d]pyrimidin-6-yl}amino)pyrrolidin-2-one]
- CLblood, human microsomes [1]: 0.13 L/h/kg
- Fmax, human microsomes [1]: 90%
- IC50 [2]: 3.85 nM

SMILES: O=C1C[C@H](Nc2nc(N3CC(CC(=O)N4CCOCC4)C3)c3cnn(-c4cccc(C(F)(F)F)c4)c3n2)CN1 [Example I-51, (4S)-4-[(4-{3-[2-(morpholin-4-yl)-2-oxoethyl]azetidin-1-yl}-1-[3-(trifluoromethyl)phenyl]-1H-pyrazolo[3,4-d]pyrimidin-6-yl)amino]pyrrolidin-2-one]
- CLblood, human microsomes [1]: 0.25 L/h/kg
- Fmax, human microsomes [1]: 81%
- IC50 [2]: 2.5 nM

SMILES: C[C@]1(N)C[C@@H](Nc2nc(N3CCOCC3)c3cnn(-c4cccc(C(F)(F)F)c4)c3n2)C1 [Example I-58, cis-1-methyl-N^3-{4-(morpholin-4-yl)-1-[3-(trifluoromethyl)phenyl]-1H-pyrazolo[3,4-d]pyrimidin-6-yl}cyclobutane-1,3-diamine]
- CLblood, human microsomes [1]: < 0.01 (stable) L/h/kg
- Fmax, human microsomes [1]: 100 (stable) %
- IC50 [2]: 23 nM

SMILES: CC1(N2CCOCC2)CN(c2nc(N[C@H]3C[C@H](S(C)(=O)=O)C3)nc3c2cnn3-c2cccc(C(F)(F)F)c2)C1 [Example I-59, 4-[3-methyl-3-(morpholin-4-yl)azetidin-1-yl]-N-[trans-3-(methylsulfonyl)cyclobutyl]-1-[3-(trifluoromethyl)phenyl]-1H-pyrazolo[3,4-d]pyrimidin-6-amine]
- CLblood, human microsomes [1]: 0.34 L/h/kg
- Fmax, human microsomes [1]: 74%
- IC50 [2]: 3.63 nM

SMILES: O=S1(=O)CCC(Nc2nc(N3CC(CN4CCOCC4)C3)c3cnn(-c4cccc(C(F)(F)F)c4)c3n2)CC1 [Example I-60, N-(1,1-dioxidotetrahydro-2H-thiopyran-4-yl)-4-[3-(morpholin-4-ylmethyl)azetidin-1-yl]-1-[3-(trifluoromethyl)phenyl]-1H-pyrazolo[3,4-d]pyrimidin-6-amine]
- CLblood, human microsomes [1]: 0.37 L/h/kg
- Fmax, human microsomes [1]: 72%
- IC50 [2]: 34.2 nM
